Experimental data: patent publication US8940911B2, “Squarylated lactones inhibitors for bacterial biofilm formation” (Syracuse University, priority 2012, dated 2015)

Tests used:
[1] = tested on: E. coli RP437; experiment: Static biofilm inhibition assay (crystal violet, 96-well plate); type: cell-based, Escherichia coli; conditions: E. coli RP437, 200 μM, 24 h, crystal violet
From the text: A primary objective was to test the ability of SHLs to inhibit biofilm formation against E. coli RP437. […] Viable controls were required that would allow us to measure and compare the activity of SHLs against known biofilm inhibitors and naturally occurring AI-1 signal molecules. […] The activity of this class of molecule is presumably similar or even marginally higher than that of brominated furanone (BF8 48) (56%).
For the present invention, the E. coli RP437 biofilms were allowed to develop in a 96-well plate in the absence or presence of SHLs. After 24 hours, the planktonic bacteria and remaining media were removed and the crystal violet was introduced in the wells. The bacterial biofilm being formed at the air/liquid interface on the inside wall of the well is stained readily by crystal violet. After removing the excess crystal violet and repeatedly washing the wells with water, followed by ethanol solubilization of the dye, allows quantification of the amount of biofilm by spectrophotometry (OD600). […] We believe that the observed biofilm inhibition activity cannot be directly attributed to any predominant structural feature inherent in the SHLs. Rather, the small deviations in the structures of the SHLs and their effect on biofilm formation could be a result of the nature of non-covalent forces that arise during SHLs presumed binding within the receptor active site.
An overnight culture of E. coli RP437 grown in LB media (OD600 of 1.0) containing streptomycin (10 μg/mL) was subsequently sub-cultured to an OD600 of 0.04 (1:100 dilution with LB media). To each well in the solvent resistant polypropylene or polystyrene-based 96-well microtiter plates were added 200 μL of the sub-cultured bacteria respectively. To each of the wells containing the bacterial cultures varying concentrations of the synthetic molecules was added and the contents in each well were gently mixed. Control wells comprised of untreated bacterial culture (four replicates) and the LB media (four replicates). The microtiter plates were then covered and wrapped in a Saran wrap and allowed to incubate at 37° C. for 24 hours without shaking. After that time, the microbial medium in each well was discarded and the remaining biofilm that was formed during incubation was stained with 225 μL of a 0.1% crystal violet solution and allowed to incubate at room temperature for 30 minutes. After the incubation period, the crystal violet was discarded and the wells were gently washed twice with water (230-250 μL) and allowed to air dry for 15-20 minutes. For the purpose of solubilizing the remaining crystal violet that had stained the biofilm present in the interior of the 96-well plates, a 250 μL solution of 95% ethanol was used. After the addition of 95% ethanol, the contents of each well were mixed thoroughly and allowed to sit for 15-20 minutes. Finally, the biofilm formed was quantified by transferring 100 μL of the ethanol solution into a fresh polystyrene microtiter dish that was subsequently read by an absorbance plate reader (A600). After elimination of background absorbance, the percentage inhibition was calculated by dividing the amount of absorbed crystal violet in wells that contained the synthetic compound by the amount of absorbed crystal violet in wells that contained bacteria only (control). Biofilm assays for each synthetic compound were repeated two to three times and each concentration considered for inhibition studies were tested over four replicates.

[2] = tested on: DsRed-express-labeled E. coli RP437; experiment: Confocal imaging of E. coli biofilms on stainless steel coupons (COMSTAT); type: cell-based, Escherichia coli; conditions: 200 μM, 24 h at 37° C., CLSM/COMSTAT
Method: The effects of SHLs upon the bacterial biofilm were examined; more specifically, the effect of SHLs upon the biofilm architecture. […] These studies were conducted by static biofilm assays employing crystal violet staining that indicates the total biomass that resides within a biofilm but provides no indication regarding the topology of the biofilms. To elucidate the topological features assumed by the E. coli RP437 biofilm in the presence of SHLs and BF8 48, studies of biofilms consisting of DsRed-express-labeled E. coli RP437 that is fluorescent and can be easily visualized by confocal laser scanning microscopy (CLSM) were performed. […] Further, the stacked images in vinyl-SHL 3 indicating the maximum thickness of the biofilm is considerably smaller than the biofilms in BF8 48 and the untreated E. coli samples. We developed the biofilms consisting of DsRed-express-labeled E. coli on stainless steel coupons (316 L, 1 in×1 in.) for 24 h at 37° C. that were treated with BF8 48 or SHLs or were left untreated. All the samples were analyzed with CLSM (see FIG. 8) and the maximum thickness of biofilms calculated using the COMSTAT software. […] Moreover, butyl-SHL 8 and butoxy-SCPA 46 reduce the biofilm thickness by 38% and 27%, respectively.
An overnight culture of E. coli RP437 pRSH103 grown in LB media (OD600 of 1.0) containing tetracycline (3 μg/mL) was subsequently sub-cultured to an OD600 of 0.04 (1:100 dilution with LB media). To each well in the solvent resistant polypropylene or polystyrene-based 24-well microtiter plates was added 200 μM synthetic molecules in DMSO solution respectively. In addition, to each of the wells containing the known concentrations of synthetic molecules was added 2 mL of the sub-cultured bacteria and the contents in each well were gently mixed. […] The fluorescent emission was detected with a LP 560 nm emission filter. The coupons were gently placed upside down on a microscope cover glass (24×60 mm, No. 2, VWR International LLC, West Chester, Pa., USA) and analyzed with CLSM. […]

[3] = tested on: SK-N-SH cells; experiment: Human neuroblastoma cancer cell cytotoxicity assay (CCK-8); type: cell-based; conditions: 200 or 300 μM, 1 h exposure, read after 24 h
Method: After examining the efficacy of SHLs at inhibiting biofilm, dispersing established biofilms, and reducing the maximum thickness of biofilms without being toxic to the planktonic bacterial cells, we tested the cytotoxicity of the key potent SHLs on the human neuroblastoma cancer cell line SK-N-SH. These studies were conducted such that the SK-N-SH cells were subjected to the maximum concentrations of the key potent SHLs tested on bacteria.
A previously grown T-flask of SK-N-SH cells was observed under a microscope to confirm the confluence of the cells. Next, the old media was discarded and the adherent cells were washed with ˜10 mL of MEM(−). The wash was discarded and 2 mL of Trypsin-EDTA solution was added to the T-flask and incubated for 10 minutes at 37° C. and at 5% atmosphere of CO2. Afterwards, the flask was viewed under a microscope to determine if the cells were suspended in the solution. Subsequently, ˜8 mL of MEM(+) was added to the flask and carefully mixed via pipette to break-up any large clusters of cells. 100 μL of the culture was added to an Eppendorf tube and combined with 100 μL of […]. A hemocytometer and glass cover slide was carefully cleaned with a kimwipe and ethanol. Placing the glass cover slide on top of the hemocytometer, 10 μL of the mixture in the Eppendorf tube was pipetted into the two grooves on the hemocytometer, avoiding the generation of bubbles. The hemocytometer was viewed one chamber at time under a microscope and the live cells were counted using the hemocytometer cell counting method. The remaining cell culture in the T-flask was diluted with MEM(+) to 25 mL such that there would be ˜5000 cells/mL. 100 μL of the culture was placed into wells on a 96 well plate such that one column had only MEM(+) and the wells on the outer perimeter of the plate were left empty. Four plates were made in this manner so that there would be plates for times 0, 24, 48, and 72 h. The plate was then incubated for 24 h at 37° C. and at 5% atmosphere of CO2. Subsequently, the old media was discarded and the wells were subjected to either 200 μM or 300 μM solutions of compounds 3, 4, 8, and 46 in MEM(+) (100 μL) such that one column still contained only MEM(+) and one column contained MEM(+) and untreated cells. The plate was incubated for 1 h and then the solutions were discarded and fresh MEM(+) media was added (100 μL). Each plate was then incubated for the desired time (0, 24, 48, or 72 h). After incubation, 10 μL of CCK-8 solution was added to each well and then the plate was incubated for 2 h followed by reading the OD450 with a microplate reader.

[4] = tested on: P. aeruginosa PAO1-GFP/pSMC2; experiment: Confocal microscopy analysis of P. aeruginosa biofilms (COMSTAT); type: cell-based, Pseudomonas aeruginosa; conditions: 400 μM, 24 h at 37° C., CLSM/COMSTAT
Method: FIG. 13 is a series of representative confocal laser scanning microscopy images of biofilm formation by P. aeruginosa PAO1-GFP/pSMC2 in the absence of inhibitor (A); and in the presence of 400 μM BF4 49 (B); 400 μM hexyl-SHL 9 (C); 400 μM tolyl-SHL 11 (D); and 400 μM thienyl-SHL 12 (E).
FIG. 14 is a graph of quantification of biofilm formation by P. aeruginosa PAO1-GFP/pSMC2 in the absence and presence of 400 μM SHLs 9, 11 and 12. Biomass, mean thickness, and surface area are quantified from fluorescence image using COMSTAT software. Z-Stack images from at least four different locations were used. Values are normalized by that of the brominated furanone-free control.
We developed the biofilms consisting of […] P. aeruginosa on stainless steel coupons (316 L, ⅜ in×⅜ in.) for 24 h at 37° C. in the absence or presence of 400 μM hexyl-SHL 9, tolyl-SHL 11, thienyl-SHL 12, and BF4 49. All the samples were analyzed with CLSM (see FIG. 13) and the biomass, surface area, and mean thickness of biofilms were calculated using the COMSTAT software. Tolyl-SHL 11 reduced the biomass by ˜90%, similar to that of the toxic BF4 49.

| SMILES | biofilm inhibition (in words) [1] | inhibition of biofilm formation [1] | further results |
| --- | --- | --- | --- |
| CCCCOc1c(OCCCC)c(=O)c1=O [BSQ 44, 3,4-dibutoxy-cyclobut-3-ene-1,2-dione, reference compound] | Poor biofilm inhibition |  |  |
| CC(C)Oc1c(OC(C)C)c(=O)c1=O [IPSQ 42, reference compound] | Poor biofilm inhibition |  |  |
| C=CCc1c(NC2CCOC2=O)c(=O)c1=O (stereo not drawn) [allyl-SHL2] | Poor biofilm inhibition |  |  |
| CCCCOc1c(NC2CCOC2=O)c(=O)c1=O (stereo not drawn) [butoxy-SHL 1] | weaker biofilm inhibition |  |  |
| CCCCc1c(NC2CCOC2=O)c(=O)c1=O (stereo not drawn) [butyl-SHL 8] |  | 48% | reduction of the maximum thickness of biofilm [2]: 38%; cytotoxicity on human neuroblastoma cancer cells (in words) [3]: does not appear to be toxic |
| CCCCCCc1c(NC2CCOC2=O)c(=O)c1=O (stereo not drawn) [hexyl-SHL 9] |  | 42% | P. aeruginosa biofilm inhibition (in words) [4]: mild |
| O=C1OCCC1Nc1c(-c2ccccc2)c(=O)c1=O (stereo not drawn) [phenyl-SHL 10] |  | 44% |  |
| C=Cc1c(NC2CCOC2=O)c(=O)c1=O [vinyl-L-SHL 4] | weaker biofilm inhibition |  | cytotoxicity on human neuroblastoma cancer cells (in words) [3]: toxic |
